The results in this text go back to paper PMC3104989 (PLoS ONE, 2011).

In assay [1] the target is T1, Hog1 (Saccharomyces cerevisiae, UniProt P32485).
T1 sequence (P32485 2-435): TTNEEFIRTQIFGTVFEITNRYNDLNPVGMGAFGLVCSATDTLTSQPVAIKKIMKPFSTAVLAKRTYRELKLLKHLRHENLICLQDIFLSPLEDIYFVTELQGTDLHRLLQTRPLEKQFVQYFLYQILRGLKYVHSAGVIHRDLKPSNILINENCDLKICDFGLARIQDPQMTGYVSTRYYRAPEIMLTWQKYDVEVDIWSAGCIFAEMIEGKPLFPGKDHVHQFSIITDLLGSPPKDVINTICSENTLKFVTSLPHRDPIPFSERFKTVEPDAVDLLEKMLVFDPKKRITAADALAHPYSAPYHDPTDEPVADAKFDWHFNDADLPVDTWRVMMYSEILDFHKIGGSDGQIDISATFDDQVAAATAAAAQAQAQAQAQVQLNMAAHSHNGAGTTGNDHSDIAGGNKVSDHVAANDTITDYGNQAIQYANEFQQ
The assay can be described thus: in vitro radiometric kinase assay with biotinylated Sic1 peptide. The assay is classed as biochemical.

Assay [2] concerns the target T1, Hog1. The experiment in a line: in vitro radiometric kinase assay, single dose […]. The assay is classed as biochemical.

Structures are written as SMILES.

Usually IC50 stands for the concentration that inhibits the measured activity by half. A lower IC50 goes with inhibition by little substance. Compound `CC(C)Nc1cc(-c2c(-c3ccc(F)cc3)nnn2Cc2ccccc2)ccn1` [4b, 4-(1-benzyl-4-(4-fluorophenyl)-1H-1,2,3-triazol-5-yl)-N-iso-propyl-pyridin-2-amine] registered an IC50 at Hog1 [1] of 6.2 ± 2.2 nM.
The term remaining activity denotes what remains of the control signal, in per cent. The low end stands for little activity left, the high end for much activity left. At Hog1 [2], `C[C@H](Nc1cc(-c2c(-c3ccc(F)cc3)nnn2Cc2ccccc2)ccn1)c1ccccc1` [4e, (S)-4-(1-benzyl-4-(4-fluorophenyl)-1H-1,2,3-triazol-5-yl)-N-(1-phenylethyl)pyridin-2-amine] yielded a remaining activity at 0.1 µM of 35 to 40%.
In turn, `Brc1ccc(-c2nnn(Cc3ccccc3)c2-c2ccncc2)cc1` [1e] showed a remaining activity at 0.1 µM at Hog1 [2] of 50 to 70%.
The compound `Clc1ccc(-c2nnn(Cc3ccccc3)c2-c2ccncc2)cc1` [1d] had a remaining activity at 0.1 µM at Hog1 [2] of 50 to 70%.
In the case of `CC(C)Nc1cc(-c2c(-c3ccccc3)nnn2Cc2ccccc2)ccn1` [4a, 4-(1-benzyl-4-phenyl-1H-1,2,3-triazol-5-yl)-N-isopropylpyridin-2-amine], the IC50 at Hog1 [1] was found to be 7.4 ± 0.41 nM.
At Hog1 [2], `Fc1ccc(-c2nnn(CC3CC3)c2-c2ccncc2)cc1` [1a] came in with a remaining activity at 0.1 µM of 50 to 70%.
On Hog1 [2], `c1ccc(Cn2nnc(-c3ccccc3)c2-c2ccncc2)cc1` [1b] gave a remaining activity at 0.1 µM of 50 to 70%.
The same measure, in the same setting: for `Fc1ccc(-c2nnn(Cc3ccccc3)c2-c2ccncc2)cc1` [1c] the value was 50 to 70%; for `CC1CCC(Nc2cc(-c3c(-c4ccc(F)cc4)nnn3Cc3ccccc3)ccn2)CC1` (stereo not drawn) [4d, 4-(1-benzyl-4-(4-fluorophenyl)-1H-1,2,3-triazol-5-yl)-N-(4-methyl-cyclohexyl)pyridin-2-amine], 35 to 40%.
